Measured values: US6303630A, “Diarylsulfone non-nucleoside reverse transcriptase inhibitors of human immunodeficiency virus” (University of the Sciences in Philadelphia, priority 2000, dated 2001)
Like-named read-outs stand apart in the source and are kept apart here.

Assays:
[1] = system: HIV-1; test: NCI in vitro anti-HIV drug screen: XTT-formazan assay, protection of T4 lymphocytes (CEM) from HIV-1 cytopathic effects; assay type: cell-based, human immunodeficiency virus (HIV-1); settings: for EC50: 144 h, HIV-1 infected CEM cells, 6 days, XTT, approximate values, read-out: EC50 (50% effective concentration against HIV cytopathic effects); for inhibition at 20 µM / activity at 20 µM: dose 2.00 × 10^-5 Molar; for inhibition at 2 µM / activity at 2 µM: dose 2.00 × 10^-6 Molar; for inhibition at 0.2 µM / activity at 0.2 µM: dose 2.00 × 10^-7 Molar; for TI50 (IC/EC), Therapeutic Index: IC50/EC50
Method: Compounds of the present invention were evaluated for anti-HIV efficacy by the National Cancer Institute's (NCI) In Vitro Anti AIDS Drug Discovery Program.
(§1) The NCI procedure is fully described, for example, in a bulletin provided by the National Institutes of Health, National Cancer Institute, Bethesda, Md. 20892, all of which is incorporated herein by reference. As related in the NCI bulletin, the procedure is based on O. W. Weislow et al., "New soluble-formazan assay for HIV-1 cytopathic effects: application to high flux screening of synthetic and natural products for AIDS-antiviral activity", J. Natl. Cancer Inst. 81:577-586 (1989), and is used to test for compounds active against human immunodeficiency virus (HIV), and is designed to detect compounds active at any stage of the virus reproductive cycle. As further related in the NCI bulletin, the assay includes killing of T4 lymphocytes by HIV. Amounts of HIV are added to cells, with a minimum of two cycles of virus reproduction found to be necessary to obtain the required cell killing. Compounds that interact with virions, cells, or virus gene-products to interfere with viral activities will protect cells from cytolysis. All were compared with a positive (e.g., AZT-treated) control evaluation at the same time under identical conditions. The procedure is set forth as follows:
(§2) A candidate compound is first dissolved in a suitable solvent, preferably dimethyl sulfoxide, then diluted 1:100 in cell culture medium before preparing serial half-log10 dilutions. T4 lymphocytes (CEM cell line) are then added and after a brief interval HIV-1 is added, resulting in a 1:200 final dilution of the compound. Uninfected cells with the compound serve as a toxicity control, and infected and uninfected without the compound serve as basic controls. Cultures are then incubated at 37° in a 5% carbon dioxide atmosphere for 6 days. The tetrazolium salt, XTT, is added to all wells, and cultures are incubated to allow formazan color development by viable cells. Individual wells are analyzed spectrophotometrically to quantitate formazan product, and in addition are viewed microscopically for detection of viable cells and confirmation of protective activity. Drug-treated virus-infected cells are compared with drug-treated noninfected cells and with other appropriate controls (untreated infected and untreated noninfected cells, drug-containing wells without cells, etc.) on the same plate. Data are reviewed in comparison with other tests performed at the same time and a determination as to activity is made.

[2] = system: T4 lymphocytes (CEM cell line); test: Cell growth / toxicity control in uninfected T4 lymphocytes (CEM), XTT-formazan; assay type: cell-based; settings: Homo sapiens, CCRF-CEM; for IC50: 144 h, approximate values; for activity at 20 µM: dose 2.00 × 10^-5 Molar; for activity at 2 µM: dose 2.00 × 10^-6 Molar; for activity at 0.2 µM: dose 2.00 × 10^-7 Molar
Description: as §1, §2

[3] = Human immunodeficiency virus 1, CCRF-CEM
[4] = Human immunodeficiency virus 1, CCRF-CEM, read-out: Percent of Protection
[5] = Human immunodeficiency virus 1, Lymphocyte, read-out: Percent of Control, Infected
[6] = read-out: Percent of Control, Uninfected

Cc1cc2c(c(S(=O)(=O)c3ccccc3[N+](=O)[O-])c1)NCCC2 [Compound 50, 8-(2-nitrophenyIsulfonyl)6-methyl-1,2,3,4-tetrahydroquinoline]
EC50 [1, 3]: 0.0751 µM | inhibition at 20 µM [1, 4]: 97.4% | inhibition at 2 µM [1, 4]: 107% | inhibition at 0.2 µM [1, 4]: 86.3% | inhibition at 0.02 µM ([1]; Human immunodeficiency virus 1, CCRF-CEM, dose 2.00 × 10^-8 Molar, read-out: Percent of Protection): -2.76% | inhibition at 6.32 µM ([1]; Human immunodeficiency virus 1, CCRF-CEM, dose 6.32 × 10^-6 Molar, read-out: Percent of Protection): 109% | inhibition at 0.633 µM ([1]; Human immunodeficiency virus 1, CCRF-CEM, dose 6.33 × 10^-7 Molar, read-out: Percent of Protection): 84.2% | inhibition at 0.0634 µM ([1]; Human immunodeficiency virus 1, CCRF-CEM, read-out: Percent of Protection, dose 6.34 × 10^-8 Molar): 44.1% | inhibition at 0.00635 µM ([1]; Human immunodeficiency virus 1, CCRF-CEM, read-out: Percent of Protection, dose 6.35 × 10^-9 Molar): -3.62% | activity at 20 µM [1, 5]: 97.6% | activity at 2 µM [1, 5]: 106% | activity at 0.2 µM [1, 5]: 87.6% | activity at 0.02 µM ([1]; Human immunodeficiency virus 1, Lymphocyte, dose 2.00 × 10^-8 Molar, read-out: Percent of Control, Infected): 6.49% | activity at 6.32 µM ([1]; Human immunodeficiency virus 1, Lymphocyte, dose 6.32 × 10^-6 Molar, read-out: Percent of Control, Infected): 108% | activity at 0.633 µM ([1]; Human immunodeficiency virus 1, Lymphocyte, dose 6.33 × 10^-7 Molar, read-out: Percent of Control, Infected): 85.7% | activity at 0.0634 µM ([1]; Human immunodeficiency virus 1, Lymphocyte, dose 6.34 × 10^-8 Molar, read-out: Percent of Control, Infected): 49.1% | activity at 0.00635 µM ([1]; Human immunodeficiency virus 1, Lymphocyte, dose 6.35 × 10^-9 Molar, read-out: Percent of Control, Infected): 5.71% | TI50 (IC/EC), Therapeutic Index [1]: > 2.66 × 10^-2 | IC50 ([2]; read-out: IC50 (50% inhibitory concentration for cell growth), uninfected CEM cells, 6 days, XTT): > 20 µM | activity at 20 µM [2, 6]: 101% | activity at 2 µM [2, 6]: 91% | activity at 0.2 µM [2, 6]: 87.1% | activity at 0.02 µM ([2]; dose 2.00 × 10^-8 Molar, read-out: Percent of Control, Uninfected): 88.4% | activity at 6.32 µM ([2]; dose 6.32 × 10^-6 Molar, read-out: Percent of Control, Uninfected): 91.2% | activity at 0.633 µM ([2]; dose 6.33 × 10^-7 Molar, read-out: Percent of Control, Uninfected): 89.3% | activity at 0.0634 µM ([2]; dose 6.34 × 10^-8 Molar, read-out: Percent of Control, Uninfected): 90.5% | activity at 0.00635 µM ([2]; dose 6.35 × 10^-9 Molar, read-out: Percent of Control, Uninfected): 90.2%

CNc1ccc(Cl)cc1S(=O)(=O)c1ccccc1 [Compound 57, 2-phenylsulfonyl-4-chloro-N-methylaniline]
EC50 [1, 3]: 9.84 µM | inhibition at 200 µM ([1]; Human immunodeficiency virus 1, CCRF-CEM, dose 2.00 × 10^-4 Molar, read-out: Percent of Protection): 22% | inhibition at 20 µM [1, 4]: 94% | inhibition at 2 µM [1, 4]: 2.94% | inhibition at 0.2 µM [1, 4]: 0.57% | inhibition at 63.2 µM ([1]; Human immunodeficiency virus 1, CCRF-CEM, dose 6.32 × 10^-5 Molar, read-out: Percent of Protection): 91.9% | inhibition at 6.33 µM ([1]; Human immunodeficiency virus 1, CCRF-CEM, dose 6.33 × 10^-6 Molar, read-out: Percent of Protection): 22.9% | inhibition at 0.0635 µM ([1]; Human immunodeficiency virus 1, CCRF-CEM, dose 6.35 × 10^-8 Molar, read-out: Percent of Protection): -1.32% | inhibition at 0.634 µM ([1]; Human immunodeficiency virus 1, CCRF-CEM, read-out: Percent of Protection, dose 6.34 × 10^-7 Molar): -1.18% | activity at 200 µM ([1]; Human immunodeficiency virus 1, Lymphocyte, dose 2.00 × 10^-4 Molar, read-out: Percent of Control, Infected): 27.5% | activity at 20 µM [1, 5]: 94.4% | activity at 2 µM [1, 5]: 9.73% | activity at 0.2 µM [1, 5]: 7.53% | activity at 63.2 µM ([1]; Human immunodeficiency virus 1, Lymphocyte, dose 6.32 × 10^-5 Molar, read-out: Percent of Control, Infected): 92.5% | activity at 6.33 µM ([1]; Human immunodeficiency virus 1, Lymphocyte, dose 6.33 × 10^-6 Molar, read-out: Percent of Control, Infected): 28.3% | activity at 0.634 µM ([1]; Human immunodeficiency virus 1, Lymphocyte, dose 6.34 × 10^-7 Molar, read-out: Percent of Control, Infected): 5.9% | activity at 0.0635 µM ([1]; Human immunodeficiency virus 1, Lymphocyte, dose 6.35 × 10^-8 Molar, read-out: Percent of Control, Infected): 5.77% | TI50 (IC/EC), Therapeutic Index [1]: > 2.03 × 10^-1 | IC50 ([2]; uninfected CEM cells, 6 days, XTT, read-out: IC50 (50% inhibitory concentration for cell growth)): > 200 µM | activity at 200 µM ([2]; dose 2.00 × 10^-4 Molar, read-out: Percent of Control, Uninfected): 75.9% | activity at 20 µM [2, 6]: 87.2% | activity at 2 µM [2, 6]: 91.5% | activity at 0.2 µM [2, 6]: 92% | activity at 63.2 µM ([2]; dose 6.32 × 10^-5 Molar, read-out: Percent of Control, Uninfected): 97.2% | activity at 6.33 µM ([2]; dose 6.33 × 10^-6 Molar, read-out: Percent of Control, Uninfected): 89.6% | activity at 0.634 µM ([2]; dose 6.34 × 10^-7 Molar, read-out: Percent of Control, Uninfected): 86.4% | activity at 0.0635 µM ([2]; dose 6.35 × 10^-8 Molar, read-out: Percent of Control, Uninfected): 91.9%
